Measured values reported in PubChem BioAssay (NCI).
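Interpolation was linear, between the two tested concentrations surrounding the appropriate level; five concentrations were tested over 48 hours in 96-well plates. At the GI50, growth is halved. Definition used: TGI = concentration required for complete inhibition of growth.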

Tests used:
Test in all cases: DTP human tumour cell line panel, 48 h
NCI-H460 lung = tested on: NCI-H460 lung
NCI-H522 lung = tested on: NCI-H522 lung
NCI/ADR-RES ovarian = tested on: NCI/ADR-RES ovarian
OVCAR-3 ovarian = tested on: OVCAR-3 ovarian
OVCAR-4 ovarian = tested on: OVCAR-4 ovarian
OVCAR-5 ovarian = tested on: OVCAR-5 ovarian
OVCAR-8 ovarian = tested on: OVCAR-8 ovarian
PC-3 prostate = tested on: PC-3 prostate
RPMI-8226 leukemia = tested on: RPMI-8226 leukemia
RXF 393 renal = tested on: RXF 393 renal
SF-268 CNS = tested on: SF-268 CNS
SF-295 CNS = tested on: SF-295 CNS
SF-539 CNS = tested on: SF-539 CNS
SK-MEL-2 melanoma = tested on: SK-MEL-2 melanoma
SK-MEL-28 melanoma = tested on: SK-MEL-28 melanoma
SK-MEL-5 melanoma = tested on: SK-MEL-5 melanoma
SK-OV-3 ovarian = tested on: SK-OV-3 ovarian
SN12C renal = tested on: SN12C renal
SNB-19 CNS = tested on: SNB-19 CNS
SNB-75 CNS = tested on: SNB-75 CNS
SR leukemia = tested on: SR leukemia
SW-620 colon = tested on: SW-620 colon
T-47D breast = tested on: T-47D breast
TK-10 renal = tested on: TK-10 renal
U251 CNS = tested on: U251 CNS
UACC-257 melanoma = tested on: UACC-257 melanoma
UACC-62 melanoma = tested on: UACC-62 melanoma
UO-31 renal = tested on: UO-31 renal

COc1ccc(/C(=C2\O[C@@H]([C@H]3COC(C)(C)O3)[C@H]3OC(C)(C)O[C@@H]23)c2cc(OC)c(OC)c(OC)c2)cc1O
GI50 (NCI-H460 lung): 4.31 µM | TGI (NCI-H460 lung): > 100 µM | GI50 (NCI-H522 lung): 2.73 µM | TGI (NCI-H522 lung): 9.08 µM | GI50 (NCI/ADR-RES ovarian): 2.52 µM | TGI (NCI/ADR-RES ovarian): 6.91 µM | GI50 (OVCAR-3 ovarian): 2.38 µM | TGI (OVCAR-3 ovarian): 5.34 µM | GI50 (OVCAR-4 ovarian): 9.18 µM | TGI (OVCAR-4 ovarian): > 100 µM | GI50 (OVCAR-5 ovarian): > 100 µM | TGI (OVCAR-5 ovarian): > 100 µM | GI50 (OVCAR-8 ovarian): 5.27 µM | TGI (OVCAR-8 ovarian): > 100 µM | GI50 (PC-3 prostate): 5.11 µM | TGI (PC-3 prostate): > 100 µM | GI50 (RPMI-8226 leukemia): 4.63 µM | TGI (RPMI-8226 leukemia): > 100 µM | GI50 (RXF 393 renal): 2.12 µM | TGI (RXF 393 renal): 5.89 µM | GI50 (SF-268 CNS): 6.95 µM | TGI (SF-268 CNS): 31.4 µM | GI50 (SF-295 CNS): 7 µM | TGI (SF-295 CNS): 37.3 µM | GI50 (SF-539 CNS): 2.59 µM | TGI (SF-539 CNS): 6.63 µM | GI50 (SK-MEL-2 melanoma): 57.9 µM | TGI (SK-MEL-2 melanoma): > 100 µM | GI50 (SK-MEL-28 melanoma): 5.45 µM | TGI (SK-MEL-28 melanoma): > 100 µM | GI50 (SK-MEL-5 melanoma): 2.69 µM | TGI (SK-MEL-5 melanoma): 11.2 µM | GI50 (SK-OV-3 ovarian): 4.11 µM | TGI (SK-OV-3 ovarian): 18.5 µM | GI50 (SN12C renal): 5.62 µM | TGI (SN12C renal): > 100 µM | GI50 (SNB-19 CNS): 4.28 µM | TGI (SNB-19 CNS): > 100 µM | GI50 (SNB-75 CNS): 1.8 µM | TGI (SNB-75 CNS): 6.31 µM | GI50 (SR leukemia): 6.27 µM | TGI (SR leukemia): > 100 µM | GI50 (SW-620 colon): 4.05 µM | TGI (SW-620 colon): > 100 µM | GI50 (T-47D breast): 25.1 µM | TGI (T-47D breast): > 100 µM | GI50 (TK-10 renal): 23.4 µM | TGI (TK-10 renal): 61.4 µM | GI50 (U251 CNS): 3.84 µM | TGI (U251 CNS): 48.2 µM | GI50 (UACC-257 melanoma): > 100 µM | TGI (UACC-257 melanoma): > 100 µM | GI50 (UACC-62 melanoma): 57.9 µM | TGI (UACC-62 melanoma): > 100 µM | GI50 (UO-31 renal): 7.53 µM | TGI (UO-31 renal): 77.8 µM
